Measurements from paper PMC8887546, “Design and Synthesis of Brain Penetrant Glycopeptide Analogues of PACAP With Neuroprotective Potential for Traumatic Brain Injury and Parkinsonism” (Frontiers in drug discovery, 2022).

Assays:
Format in all cases: cell-based
human VPAC1 receptor = molecular target: T1, human VPAC1 receptor (Homo sapiens, UniProt P32241); assay: cAMP stimulation in CHO cells expressing VPAC1; details: for Emax: CHO, read-out: VPAC1 Emax; for EC50: read-out: VPAC1 EC50; for Receptor selectivity ratio VPAC1/PAC1: ratio of cAMP EC50 values
T1 construct: expressed in transfected cells; host or cells: CHO cells (G418 selection)
T1 sequence (P32241 31-457): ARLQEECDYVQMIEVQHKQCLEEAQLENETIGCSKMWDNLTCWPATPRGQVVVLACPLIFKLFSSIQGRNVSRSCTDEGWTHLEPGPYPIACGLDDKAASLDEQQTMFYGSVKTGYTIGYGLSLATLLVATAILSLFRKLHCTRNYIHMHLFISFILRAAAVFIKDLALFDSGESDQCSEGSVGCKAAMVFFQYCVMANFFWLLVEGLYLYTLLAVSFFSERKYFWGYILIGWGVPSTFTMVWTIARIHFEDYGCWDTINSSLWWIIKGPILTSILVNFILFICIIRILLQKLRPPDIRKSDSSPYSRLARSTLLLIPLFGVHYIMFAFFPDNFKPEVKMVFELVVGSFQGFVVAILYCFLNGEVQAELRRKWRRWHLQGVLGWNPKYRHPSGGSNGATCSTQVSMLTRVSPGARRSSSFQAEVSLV

human VPAC2 receptor = molecular target: T2, human VPAC2 receptor (Homo sapiens, UniProt P41587); assay: cAMP stimulation in CHO cells expressing VPAC2; details: for Emax: CHO; for Receptor selectivity ratio VPAC2/PAC1 / Receptor selectivity ratio VPAC2/VPAC1: ratio of cAMP EC50 values
T2 construct: expressed in transfected cells; host or cells: CHO cells (G418 selection)
T2 sequence (P41587 24-438): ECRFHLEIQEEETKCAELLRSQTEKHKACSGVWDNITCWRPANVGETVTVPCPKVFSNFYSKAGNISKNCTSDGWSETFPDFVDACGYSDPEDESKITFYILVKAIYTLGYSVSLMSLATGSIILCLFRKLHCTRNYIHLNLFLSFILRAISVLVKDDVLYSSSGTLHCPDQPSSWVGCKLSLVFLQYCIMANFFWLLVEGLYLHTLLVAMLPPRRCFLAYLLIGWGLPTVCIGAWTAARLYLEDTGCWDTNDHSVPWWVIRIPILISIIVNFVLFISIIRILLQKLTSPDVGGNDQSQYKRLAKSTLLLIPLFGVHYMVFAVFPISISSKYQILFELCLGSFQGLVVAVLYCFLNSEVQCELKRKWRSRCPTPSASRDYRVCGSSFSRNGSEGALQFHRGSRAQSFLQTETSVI
Procedure: (§1) Briefly, human PAC1, VPAC1, and VPAC2 receptors expressed in CHO cells were used for all experiments. Cells were grown in 50:50 DMEM-F12 medium with 10% heat-inactivated fetal bovine serum, 1X penicillin-streptomycin supplement, and 500 μg/ml G418 (neomycin) to maintain selection (all from ThermoFisher) at 37°C with 5% CO2 atmosphere. For the cAMP assay, cells were seeded at 20,000 cells/well in a 96 well plate, recovered overnight, then serum starved for 4 h. The cells were then incubated with 500 μM IBMX for 20 min, followed by agonist concentration curves in 500 μM IBMX media for 10 min. The reaction was terminated, boiled, then collected, followed by competition with 7 μg of bovine protein kinase A (Sigma-Aldrich) and ∼1 pmol of ^3H-cAMP (PerkinElmer). The assay was incubated at room temp for 1 h, then collected onto GF/B filter plates and the data read using a MicroBeta2 scintillation counter (PerkinElmer).

human PAC1 receptor = molecular target: T3, human PAC1 receptor (Homo sapiens, UniProt P41586); assay: cAMP stimulation in CHO cells expressing PAC1; details: for Emax: CHO
T3 construct: expressed in transfected cells; host or cells: CHO cells (G418 selection)
T3 sequence (P41586 21-468): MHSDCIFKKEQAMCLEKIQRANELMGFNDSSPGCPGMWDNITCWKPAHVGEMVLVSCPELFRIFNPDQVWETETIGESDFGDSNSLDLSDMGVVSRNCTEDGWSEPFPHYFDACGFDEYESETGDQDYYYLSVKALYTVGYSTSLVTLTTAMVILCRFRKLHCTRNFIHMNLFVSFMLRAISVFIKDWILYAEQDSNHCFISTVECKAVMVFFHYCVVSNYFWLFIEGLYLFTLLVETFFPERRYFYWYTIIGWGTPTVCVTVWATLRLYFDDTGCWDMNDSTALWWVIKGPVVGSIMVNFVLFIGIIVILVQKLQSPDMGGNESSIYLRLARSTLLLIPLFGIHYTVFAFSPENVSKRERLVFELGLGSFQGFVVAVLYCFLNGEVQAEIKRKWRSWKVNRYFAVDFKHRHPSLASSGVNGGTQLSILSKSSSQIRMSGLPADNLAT
Procedure: as §1

Row | Emax (human VPAC1 receptor) | EC50 (human VPAC1 receptor) | EC50 (human VPAC2 receptor) | Emax (human VPAC2 receptor) | EC50 (human PAC1 receptor) | Emax (human PAC1 receptor) | Receptor selectivity ratio VPAC1/PAC1 (human VPAC1 receptor) | Receptor selectivity ratio VPAC2/PAC1 (human VPAC2 receptor) | Receptor selectivity ratio VPAC2/VPAC1 (human VPAC2 receptor) | Structure (SMILES)
1 | 36% | 415 nM | > 2500 nM | 31% | > 2500 nM | 35% | – | – | – | CCCC[C@H](NC(=O)CN(C)C(=O)[C@H](CC(=O)O)NC(=O)[C@@H](CO)NC(=O)[C@H](Cc1c[nH]cn1)NC(C)=O)C(=O)N[C@@H](Cc1ccccc1)C(=O)N[C@H](C(=O)N[C@@H](CC(=O)O)C(=O)N[C@@H](CO)C(=O)N[C@@H](Cc1ccc(O)cc1)C(=O)N[C@@H](CO)C(=O)N[C@@H](CCCNC(=N)N)C(=O)N[C@@H](Cc1ccc(O)cc1)C(=O)N[C@@H](CCCNC(=N)N)C(=O)N[C@@H](CCCCN)C(=O)N[C@@H](CCC(N)=O)C(=O)N[C@@H](CCC)C(=O)N[C@@H](C)C(=O)N[C@H](C(=O)N[C@@H](CCCCN)C(=O)N[C@@H](CCCCN)C(=O)N[C@@H](Cc1ccc(O)cc1)C(=O)N[C@@H](CC(C)C)C(=O)N[C@@H](C)C(=O)N[C@@H](C)C(=O)N[C@H](C(=O)N[C@@H](CC(C)C)C(=O)N[C@@H](CO[C@@H]1O[C@H](CO)[C@@H](O)[C@H](O)[C@H]1O)C(N)=O)C(C)C)C(C)C)[C@@H](C)O [Ac-CRA 3018]
2 | 93% | 0.52 nM | 55.6 nM | 91% | 0.84 nM | 92% | 0.62 | 66.19 | 106.92 | [2H]C([2H])([2H])C([2H])(C([2H])([2H])[2H])[C@]([2H])(NC(=O)[C@H](C)NC(=O)[C@H](C)NC(=O)[C@H](CC(C)C)NC(=O)[C@H](Cc1ccc(O)cc1)NC(=O)[C@H](CCCCN)NC(=O)[C@H](CCCCN)NC(=O)[C@@H](NC(=O)[C@H](C)NC(=O)[C@H](CC(C)C)NC(=O)[C@H](CCC(N)=O)NC(=O)[C@H](CCCCN)NC(=O)[C@H](CCCNC(=N)N)NC(=O)[C@H](Cc1ccc(O)cc1)NC(=O)[C@H](CCCNC(=N)N)NC(=O)[C@H](CO)NC(=O)[C@H](Cc1ccc(O)cc1)NC(=O)[C@H](CO)NC(=O)[C@H](CC(=O)O)NC(=O)[C@@H](NC(=O)[C@H](Cc1ccccc1)NC(=O)[C@@H](NC(=O)CNC(=O)[C@H](CC(=O)O)NC(=O)[C@H](CO)NC(=O)[C@@H](N)Cc1c[nH]cn1)[C@@H](C)CC)[C@@H](C)O)C(C)C)C(=O)N[C@@H](CC(C)C)C(=O)N[C@@H](CO[C@@H]1O[C@H](CO)[C@@H](O[C@@H]2O[C@H](CO)[C@@H](O)[C@H](O)[C@H]2O)[C@H](O)[C@H]1O)C(N)=O [Compound 2LS98Cell]
3 | 96% | – | – | 116% | – | 92% | – | – | – | CCC[C@H](NC(=O)[C@H](CCC(N)=O)NC(=O)[C@H](CCCCN)NC(=O)[C@H](CCCNC(=N)N)NC(=O)[C@H](Cc1ccc(O)cc1)NC(=O)[C@H](CCCNC(=N)N)NC(=O)[C@H](CO)NC(=O)[C@H](Cc1ccc(O)cc1)NC(=O)[C@H](CO)NC(=O)[C@H](CC(=O)O)NC(=O)[C@@H](NC(=O)[C@H](Cc1ccccc1)NC(=O)[C@@H](NC(=O)CNC(=O)[C@H](CC(=O)O)NC(=O)[C@@H](CO)NC(=O)[C@@H](N)Cc1c[nH]cn1)[C@@H](C)CC)[C@@H](C)O)C(=O)N[C@@H](C)C(=O)N[C@H](C(=O)N[C@@H](CCCCN)C(=O)N[C@@H](CCCCN)C(=O)N[C@@H](Cc1ccc(O)cc1)C(=O)N[C@@H](CC(C)C)C(=O)N[C@@H](C)C(=O)N[C@@H](C)C(=O)N[C@H](C(=O)N[C@@H](CC(C)C)C(=O)N[C@@H](CO[C@@H]1O[C@H](CO)[C@@H](O[C@@H]2O[C@H](CO)[C@H](O)[C@H](O)[C@H]2O)[C@H](O)[C@H]1O)C(N)=O)C(C)C)C(C)C [CRA 3000-Lac]
4 | 94% | – | – | 106% | – | 90% | – | – | – | CCC[C@H](NC(=O)[C@H](CCC(N)=O)NC(=O)[C@H](CCCCN)NC(=O)[C@H](CCCNC(=N)N)NC(=O)[C@H](Cc1ccc(O)cc1)NC(=O)[C@H](CCCNC(=N)N)NC(=O)[C@H](CO)NC(=O)[C@H](Cc1ccc(O)cc1)NC(=O)[C@H](CO)NC(=O)[C@H](CC(=O)O)NC(=O)[C@@H](NC(=O)[C@H](Cc1ccccc1)NC(=O)[C@@H](NC(=O)CNC(=O)[C@H](CC(=O)O)NC(=O)[C@@H](CO)NC(=O)[C@H](Cc1c[nH]cn1)NC(C)=O)[C@@H](C)CC)[C@@H](C)O)C(=O)N[C@@H](C)C(=O)N[C@H](C(=O)N[C@@H](CCCCN)C(=O)N[C@@H](CCCCN)C(=O)N[C@@H](Cc1ccc(O)cc1)C(=O)N[C@@H](CC(C)C)C(=O)N[C@@H](C)C(=O)N[C@@H](C)C(=O)N[C@H](C(=O)N[C@@H](CC(C)C)C(=O)N[C@@H](CO[C@@H]1O[C@H](CO)[C@@H](O)[C@H](O)[C@H]1O)C(N)=O)C(C)C)C(C)C [Ac-CRA3000]
5 | 122% | 132 nM | 2650 nM | 122% | 205 nM | 79% | 0.64 | 12.95 | 20.11 | CCC[C@H](NC(=O)[C@H](CCC(N)=O)NC(=O)[C@H](CCCCN)NC(=O)[C@H](CCCNC(=N)N)NC(=O)[C@H](Cc1ccc(O)cc1)NC(=O)[C@H](CCCNC(=N)N)NC(=O)[C@H](CO)NC(=O)[C@H](Cc1ccc(O)cc1)NC(=O)[C@H](CO)NC(=O)[C@H](CC(=O)O)NC(=O)[C@@H](NC(=O)[C@H](Cc1ccccc1)NC(=O)[C@H](C)NC(=O)CNC(=O)[C@H](CC(=O)O)NC(=O)[C@@H](CO)NC(=O)[C@@H](N)Cc1c[nH]cn1)[C@@H](C)O)C(=O)N[C@@H](C)C(=O)N[C@H](C(=O)N[C@@H](CCCCN)C(=O)N[C@@H](CCCCN)C(=O)N[C@@H](Cc1ccc(O)cc1)C(=O)N[C@@H](CC(C)C)C(=O)N[C@@H](C)C(=O)N[C@@H](C)C(=O)N[C@H](C(=O)N[C@@H](CC(C)C)C(=O)N[C@@H](CO[C@@H]1O[C@H](CO)[C@@H](O)[C@H](O)[C@H]1O)C(N)=O)C(C)C)C(C)C [CRA 3014]
6 | 98% | 2.2 nM | 27.2 nM | 101% | 2.8 nM | 96% | 0.79 | 9.71 | 12.36 | CC[C@H](C)[C@H](NC(=O)CNC(=O)[C@H](CC(=O)O)NC(=O)[C@H](CO)NC(=O)[C@H](Cc1c[nH]cn1)NC(C)=O)C(=O)N[C@@H](Cc1ccccc1)C(=O)N[C@H](C(=O)N[C@@H](CC(=O)O)C(=O)N[C@@H](CO)C(=O)N[C@@H](Cc1ccc(O)cc1)C(=O)N[C@@H](CO)C(=O)N[C@@H](CCCNC(=N)N)C(=O)N[C@@H](Cc1ccc(O)cc1)C(=O)N[C@@H](CCCNC(=N)N)C(=O)N[C@@H](CCCCN)C(=O)N[C@@H](CCC(N)=O)C(=O)N[C@@H](CC(C)C)C(=O)N[C@@H](C)C(=O)N[C@H](C(=O)N[C@@H](CCCCN)C(=O)N[C@@H](CCCCN)C(=O)N[C@@H](Cc1ccc(O)cc1)C(=O)N[C@@H](CC(C)C)C(=O)N[C@@H](C)C(=O)N[C@@H](C)C(=O)N[C@H](C(=O)N[C@@H](CC(C)C)C(=O)N[C@@H](CO[C@@H]1O[C@H](CO)[C@@H](O[C@@H]2O[C@H](CO)[C@H](O)[C@H](O)[C@H]2O)[C@H](O)[C@H]1O)C(N)=O)C(C)C)C(C)C)[C@@H](C)O [Ac-2LS132]
